Test system: 22HT (DNA, G4) AGGGTTAGGGTTAGGGTTAGGG
Test: CD melting at 293 nm
Conditions: 10 mM Tris-HCl pH 7.2, 3 equiv. ligand

ΔTm (100 mM KCl, 2 µM DNA, SD of Tm ±0.5 °C): 4.3 °C
ΔTm (100 mM NaCl, 2 µM DNA, SD of Tm ±0.5 °C): 4.5 °C
ΔTm (no added Na+ or K+, ligand-induced G4 folding, Tm without ligand <14 °C): > 30.6 °C
Structure (SMILES): CC[n+]1c(/C=C/c2ccc3c(c2)c2ccccc2n3CCCCn2ccnc2)sc2ccccc21
